Consider 2 molecules from patent US20160235735A1 (Teva Pharmaceutical Industries, Ltd., priority 2012, published 2016).

Structures are written as SMILES. Several values for one entry are separate records, joined by “and”; a condition that tells them apart may be missing. Equal values may be shown once.

The conditions of data set [1]: in vivo; cited from earlier work.
Another data set deals with MOG-induced EAE Mice. As to the kind of experiment: MOG-induced EAE in mice: laquinimod alone or in combination with fampridine. The format is in vivo, C57BL/6 mice. The following applies: for Incidence / Mortality: 30 days; for % inhibition 3: according to GMS; for % inhibition 2: according to MMS; for % inhibition 1: according to incidence; for GMS value: group mean score; for MMS value: mean maximal score.

The conditions of data set [2]: cited from earlier work.
The conditions of data set [3]: in vivo; cited from earlier work. The source holds these as a separate data set.
Setting [4] is: 4AP 2.5 mg/kg oral QD, compared to vehicle.
Where [5] appears, read: 4AP 5 mg/kg oral QD, compared to vehicle.
The mark [6] stands for this setting: laquinimod 10 mg/kg oral QD, compared to vehicle.
Setting [7] is: laquinimod 25 mg/kg oral QD, compared to LAQ (10 mg/kg).
The mark [8] stands for this setting: laquinimod 25 mg/kg oral QD, compared to vehicle.

On to `Nc1ccncc1` [4AP, pyridin-4-amine], for which the safety issues entry in data set [1] is reported as “safety issues related to seizure induction”. In addition, in the data set with MOG-induced EAE Mice (4AP 2.5 mg/kg oral QD), the Incidence is given as 15/15, the Mortality is 0/15, the GMS value is 2.2 ± 0.5 and the MMS value amounted to 3.5 ± 0.6. In the data set on MOG-induced EAE Mice (setting [4]), the “% inhibition 3” value is 24.1%, the “% inhibition 2” value amounted to 10.2% and the “% inhibition 1” value came out at 0%. Moreover, the “% inhibition 3” value with MOG-induced EAE Mice (4AP 2.5 mg/kg oral QD, compared to vehicle, listed as fampridine) turned out to be 24.1%. In addition, in the data set on MOG-induced EAE Mice (4AP 5 mg/kg oral QD), the Incidence is recorded as 15/15, the Mortality is reported as 0/15, the GMS value amounted to 1.9 ± 0.6 and the MMS value turned out to be 3.4 ± 0.6. Also, in the data set with MOG-induced EAE Mice (setting [5]), the “% inhibition 3” value is 34.5%, the “% inhibition 2” value is 12.8% and the “% inhibition 1” value is recorded as 0%. In the data set on MOG-induced EAE Mice (4AP 5 mg/kg oral QD, compared to vehicle, listed as fampridine), the “% inhibition 3” value is 34.5%. Further, in data set [2] (chloride salt), the “solubility in aqueous solution” value is given as “readily soluble”. In addition, the lipid solubility result in data set [2] (unionized form) was “lipid-soluble”.
Consider `CCN(C(=O)c1c(O)c2c(Cl)cccc2n(C)c1=O)c1ccccc1` [LAQ, Laquinimod], for which the oral bioavailability entry in data set [3] is given as “high oral bioavailability”. Besides, in the data set on MOG-induced EAE Mice (laquinimod 10 mg/kg oral QD), the Incidence is 10/15 and 15/15; the Mortality was 0/15; the GMS value was 1.2 ± 1.0; the MMS value turned out to be 2.4 ± 1.9. In addition, in the data set with MOG-induced EAE Mice (setting [6]), the “% inhibition 3” value is listed as 58.6%, the “% inhibition 2” value amounted to 38.5% and the “% inhibition 1” value is 33.3%. In addition, in the data set with MOG-induced EAE Mice (laquinimod 10 mg/kg oral QD, compared to vehicle, listed as laquinimod), the “% inhibition 3” value was 58.6%. Also, in the data set on MOG-induced EAE Mice (laquinimod 25 mg/kg oral QD), the Incidence is 4/15, the Mortality was 0/15, the GMS value is given as 0.4 ± 0.7 and the MMS value was 0.7 ± 1.3. In the data set on MOG-induced EAE Mice (setting [7]), the “% inhibition 3” value stood at 66.7%, the “% inhibition 2” value came out at 70.8% and the “% inhibition 1” value is on record as 60.0%. Also, in the data set with MOG-induced EAE Mice (setting [8]), the “% inhibition 3” value is given as 86.2%, the “% inhibition 2” value is recorded as 82.1% and the “% inhibition 1” value is 73.3%. For the same molecule, the “% inhibition 3” value in the data set with MOG-induced EAE Mice (laquinimod 25 mg/kg oral QD, compared to vehicle, listed as laquinimod) came out at 86.2%.
